These results are taken from patent US20110015153A1, “FLY CONTROL METHOD” (E.I. DU PONT DE NEMOURS AND COMPANY, priority 2007, published 2011).

The assay has as its system Adult L. serricata (blowflies). Briefly: Test A: adult blowflies on blood agar containing test compound, number of dead flies scored. It is filed as in vivo. The following applies: 4 flies in test. Here is the method:
Adult L. serricata (blowflies): Adult flies are placed on beds of blood agar (in individual test wells; 4 flies per well) in which test compound (3-bromo-1-(3-chloro-2-pyridinyl)-N-[4-cyano-2-methyl-6-[(methylamino)carbonyl]phenyl]-1H-pyrazole-5-carboxamide) was dissolved/suspended prior to hardening of agar. Flies can take up test compound by both ingestion and contact. Assays are scored by number of dead flies at 2 hours, 4 hours, and 24 hours.

For `CCOP(=S)(OCC)Oc1nc(Cl)c(Cl)cc1Cl` [Chloropyriphos], the “Number dead flies at 2 hours” value runs as follows: (Rate 1 ppm in blood agar) 0; (Rate 10 ppm in blood agar) 1; (Rate 25 ppm in blood agar) 3; (Rate 50 ppm in blood agar) 4; (Rate 100 ppm in blood agar) 4. Further, the “Number dead flies at 4 hours” value came out at 1 (Rate 1 ppm in blood agar); 4 (Rate 10 ppm in blood agar); 4 (Rate 25 ppm in blood agar); 4 (Rate 50 ppm in blood agar); 4 (Rate 100 ppm in blood agar). In addition, the “Number dead flies at 24 hours” value runs as follows: (Rate 1 ppm in blood agar) 4; (Rate 10 ppm in blood agar) 4; (Rate 25 ppm in blood agar) 4; (Rate 50 ppm in blood agar) 4; (Rate 100 ppm in blood agar) 4.
For the compound `CNC(=O)c1cc(C#N)cc(C)c1NC(=O)c1cc(Br)nn1-c1ncccc1Cl` [Test compound, 3-bromo-1-(3-chloro-2-pyridinyl)-N-[4-cyano-2-methyl-6-[(methylamino)-carbonyl]phenyl]-1H-pyrazole-5-carboxamide], the “Number dead flies at 2 hours” value runs as follows: (Rate 1 ppm in blood agar) 0; (Rate 10 ppm in blood agar) 0; (Rate 25 ppm in blood agar) 0; (Rate 50 ppm in blood agar) 0; (Rate 100 ppm in blood agar) 0. In addition, the “Number dead flies at 4 hours” value worked out at 0 (Rate 1 ppm in blood agar); 0 (Rate 10 ppm in blood agar); 0 (Rate 25 ppm in blood agar); 0 (Rate 50 ppm in blood agar); 0 (Rate 100 ppm in blood agar). Besides, the “Number dead flies at 24 hours” value (Rate 1 ppm in blood agar) is listed as 0; the “Number dead flies at 24 hours” value (Rate 10 ppm in blood agar) is listed as 1; the “Number dead flies at 24 hours” value (Rate 25 ppm in blood agar) was 2; the “Number dead flies at 24 hours” value (Rate 50 ppm in blood agar) is reported as 3; the “Number dead flies at 24 hours” value (Rate 100 ppm in blood agar) stood at 3.
